System: montane vole, Microtus montanus
Assay: Uterine weight response in female montane voles after intraperitoneal injection
Type: in vivo
Settings: i.p. 5 mcg/day for three days; for Average Uterine Weight: sacrificed 24 hours after last injection, control 15.2 ± 2.4
Procedure: Female montane voles, Microtis montanus, received intra peritoneal injections of representative compounds belonging to Formulas I, II and III for three consecutive days and sacrificed twenty-four (24) hours after the last injection to examine uterine weight response. To assess the properties of each representative compound, pure ones made by chemical means (University of Utah Department of Chemistry, Salt Lake City, Utah) were prepared specifically for this test. All compounds were injected at a dose level of 5 mcg/day, dissolved in five percent (5%) propylene glycol for a total injection volume of 0.5 ml. Control animals received 0.5 ml of five percent (5%) propylene glycol only. All voles were 4-5 weeks old and weighed 25-29 g.

Structure (SMILES)	increase in uterine weight over control group	Average Uterine Weight
COc1ccc2oc(=O)[nH]c2c1 [5-methoxy-2-benzoxazolinone]	32%	20.0 ± 4.7 mg
COc1ccc2[nH]c(=O)oc2c1 [6-methoxy-2-benzoxazolinone]	82%	27.7 ± 5.6 mg
COc1ccc(O)c(N)c1 [2-amino-4-methoxyphenol]		22.2 ± 3.2 mg
COc1ccc(N)c(O)c1 [2-amino-5-methoxyphenol]		21.8 ± 3.5 mg
COc1ccc(O)c(NC(C)=O)c1 [2-hydroxy-5-methoxyacetanilide]		21.1 ± 4.4 mg
COc1ccc(NC(C)=O)c(O)c1 [2-hydroxy-4-methoxyacetanilide]		23.1 ± 2.7 mg
CCOc1ccc(NC(C)=O)c(O)c1 [2-hydroxy-4-ethoxyacetanilide]		22.2 ± 3.9 mg
